Assay results taken from patent US20260138990A1, “TRICYCLIC FUSED IMIDAZOLE COMPOUNDS AS CD38 MODULATORS AND USES THEREOF” (AEOVIAN PHARMACEUTICALS, INC., priority 2023, published 2026).
Structures can show the parent of a compound that is named as a salt.

Experiments:
mouse CD38 = target: T1, mouse CD38 (Mus musculus, UniProt P56528); assay: NAD+ cyclase activity assay with mouse recombinant CD38 protein (ε-NAD fluorescence); assay type: biochemical; settings: 0.6 nM mouse CD38, substrate ε-NAD, 30 min preincubation, fluorescence 300/410 nm
T1 construct: purchased Bio-Techne GmbH 4947-AC
T1 sequence (P56528 1-304): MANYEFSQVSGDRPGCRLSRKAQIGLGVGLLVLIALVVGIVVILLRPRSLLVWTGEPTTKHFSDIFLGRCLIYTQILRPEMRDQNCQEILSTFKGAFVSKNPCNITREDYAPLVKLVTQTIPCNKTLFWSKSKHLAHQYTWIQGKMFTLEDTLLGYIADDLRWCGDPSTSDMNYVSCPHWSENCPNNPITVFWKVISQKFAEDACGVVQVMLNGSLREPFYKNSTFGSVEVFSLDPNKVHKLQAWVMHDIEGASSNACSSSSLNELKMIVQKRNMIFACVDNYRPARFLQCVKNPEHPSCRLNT
Method: (§1) Example 4: NAD^+ Cydase Activity Assay with Human or Mouse Recombinant CD38 Protein
(§2) The following assay was used to determine the ability of compounds of the invention to inhibit the hydrolysis of NAD^+ by the human or mouse enzyme, CD38.
(§3) Reaction buffer: 40 mM HEPES/NaOH pH 7.5, 250 mM sucrose, 0.01% Tween
(§4) Final concentrations: 0.6 nM mouse CD38 (4947-AC, Bio-Techne GmbH) 1.9 nM human CD38 (AVI2404, Bio-Techne GmbH)
(§5) Substrate: […] Nicotinamide 1,N6-ethenoadenine dinucleotide (&-NAD)
(§6) Read-out: Fluorescence intensity (extinction 300 nm/emission 410 nm)
(§7) Required reaction buffer, required CD38 concentration in reaction buffer and required e-NAD concentration in reaction buffer were prepared. Thereafter, 8 μL of CD38 in reaction buffer was added to High Control and compound concentration wells in 384 well plate (Corning #4514, 384 well, nonbinding surface, low volume, round bottom) and 8 μL of reaction buffer to Low Control. Compound dilutions were transferred via pintool technology that transfers 42.5 nL compound dilutions (12-point dose-response with factor three dilutions in 100% DMSO) well-to-well. Plate was subsequently shaken for 15 s at 1450 rpm and sealed for incubation for 30 min at room temperature. Thereafter, 2 μL of e-NAD in reaction buffer were added with Integra Voyager. After shaking for 15 s at 1450 rpm, plate was sealed, and assay signal were measured continuously with PHERAstar® fluorescence intensity module (extinction 300 nm/emission 410 nm).
(§8) Dose-response curves were constructed using twelve-pointfactor three dilutions in triplicates per plate. High control (full enzyme activity) was set to assay signal of CD38 and e-NAD in presence of vehicle (DMSO) and Low control (full enzyme inhibition) was set to assay signal of e-NAD and vehicle (DMSO) in absence of CD38. For data analysis, fluorescent signal of traces corresponding to each compound concentration and High and Low control were monitored over time. Each run, High Control (full enzyme activity) was fitted to Linear equation via GraphPad Prism to determine CD38 activity from the slope and determine the time interval of linear phase of reaction to account for minor fluctuations. Thereafter, slopes of all compound concentrations were determined via fitting to same linear equation (GraphPad Prism) over the same time interval as determined for High control. […] Unless otherwise stated, fitting of curves were fixed to 100%-inhibition and unlocked for 0%-inhibition.

human CD38 = target: T2, human CD38 (Homo sapiens, UniProt P28907); assay: NAD+ cyclase activity assay with human recombinant CD38 protein (ε-NAD fluorescence); assay type: biochemical; settings: 1.9 nM human CD38, substrate ε-NAD, 30 min preincubation, fluorescence 300/410 nm
T2 construct: purchased Bio-Techne GmbH AVI2404
T2 sequence (P28907 1-300): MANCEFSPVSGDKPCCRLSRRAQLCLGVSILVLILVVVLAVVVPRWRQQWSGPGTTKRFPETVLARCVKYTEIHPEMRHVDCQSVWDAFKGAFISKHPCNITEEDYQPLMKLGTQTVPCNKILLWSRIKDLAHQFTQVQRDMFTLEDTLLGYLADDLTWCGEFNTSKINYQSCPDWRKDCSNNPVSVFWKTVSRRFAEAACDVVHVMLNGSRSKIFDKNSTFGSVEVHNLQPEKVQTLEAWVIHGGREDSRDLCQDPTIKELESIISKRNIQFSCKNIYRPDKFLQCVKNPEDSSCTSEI
Method: as §1, §2, §3, §4, §5, §6, §7, §8

| IC50 (mouse CD38) [nM] | IC50 (human CD38) [nM] | Compound |
| --- | --- | --- |
| 1 to 10 | < 30 | O=C(N[C@H]1CCc2ccccc21)c1ccc2c(c1)-c1cncn1CCO2 [Compound 6A, (S)—N-(2,3-Dihydro-1H-inden-1-yl)-5,6-dihydrobenzo[f]imidazo[1,5-d][1,4]oxazepine-10-carboxamide] |
| 1 to 10 | < 30 | O=C(Nc1ccc2c(c1)CCO2)c1ccc2c(c1)-c1cncn1CCO2 [Compound 9A, N-(2,3-Dihydrobenzofuran-5-yl)-5,6-dihydrobenzo[f]imidazo[1,5-d][1,4]oxazepine-10-carboxamide] |
| < 1 | < 30 | CNC(=O)[C@H]1CC[C@H](NC(=O)c2ccc3c(c2)-c2cncn2CCO3)CC1 [Compound 17A, N-((1r,4r)-4-(Methylcarbamoyl)cyclohexyl)-5,6-dihydrobenzo[f]imidazo[1,5-d][1,4]oxazepine-10-carboxamide] |
| < 1 | < 30 | CS(=O)(=O)c1cccc(NC(=O)c2ccc3c(c2)-c2cncn2CCO3)c1 [Compound 18A, N-(3-(Methylsulfonyl)phenyl)-5,6-dihydrobenzo[f]imidazo[1,5-d][1,4]oxazepine-10-carboxamide] |
| < 1 | < 30 | CO[C@H]1CC[C@H](NC(=O)c2ccc3c(c2)-c2cncn2CCO3)CC1 [Compound 20A, N-((1r,4r)-4-Methoxycyclohexyl)-5,6-dihydrobenzo[f]imidazo[1,5-d][1,4]oxazepine-10-carboxamide] |
| 1 to 10 | < 30 | CS(=O)(=O)c1cncc(NC(=O)c2ccc3c(c2)-c2cncn2CCO3)c1 [Compound 22A, N-(5-(Methylsulfonyl)pyridin-3-yl)-5,6-dihydrobenzo[f]imidazo[1,5-d][1,4]oxazepine-10-carboxamide] |
| 10 to 100 | 30 to 100 | CC(C)(C)OC(=O)N1Cc2ccc(NC(=O)c3ccc4c(c3)-c3cncn3CCO4)cc2C1 [Compound 23A, tert-Butyl 5-(5,6-dihydrobenzo[f]imidazo[1,5-d][1,4]oxazepine-10-carboxamido)isoindoline-2-carboxylate] |
| 10 to 100 | 30 to 100 | O=C(Nc1ccc2c(c1)CNC2)c1ccc2c(c1)-c1cncn1CCO2 [Compound 24A, N-(Isoindolin-5-yl)-5,6-dihydrobenzo[f]imidazo[1,5-d][1,4]oxazepine-10-carboxamide hydrochloride] |
| 10 to 100 | 100 to 1000 | O=C(N[C@@H]1CCCOC1)c1ccc2c(c1)-c1cncn1CCCO2 [Compound 26A, (R)—N-(Tetrahydro-2H-pyran-3-yl)-6,7-dihydro-5H-benzo[b]imidazo[5,1-d][1,5]oxazocine-11-carboxamide] |
| 1 to 10 | < 30 | COCCS(=O)(=O)N[C@H]1CC[C@H](NC(=O)c2ccc3c(c2)-c2cncn2CCO3)CC1 [Compound 29A, N-((1r,4r)-4-((2-Methoxyethyl)sulfonamido)cyclohexyl)-5,6-dihydrobenzo[f]imidazo[1,5-d][1,4]oxazepine-10-carboxamide] |

The next lines start with the compound.

| Compound | IC50 (mouse CD38) [nM] | IC50 (human CD38) [nM] |
| --- | --- | --- |
| O=C(Nc1ccc2scnc2c1)c1ccc2c(c1)-c1cncn1CCO2 [Compound 7A, N-(Benzo[d]thiazol-5-yl)-5,6-dihydrobenzo[f]imidazo[1,5-d][1,4]oxazepine-10-carboxamide] | 1 to 10 | < 30 |
| O=C(Nc1ccc2c(c1)OCCO2)c1ccc2c(c1)-c1cncn1CCO2 [Compound 8A, N-(2,3-Dihydrobenzo[b][1,4]dioxin-6-yl)-5,6-dihydrobenzo[f]imidazo[1,5-d][1,4]oxazepine-10-carboxamide] | 1 to 10 | < 30 |
| O=C(Nc1ccc(C(F)(F)F)nc1)c1ccc2c(c1)-c1cncn1CCO2 [Compound 10A, N-(6-(Trifluoromethyl)pyridin-3-yl)-5,6-dihydrobenzo[f]imidazo[1,5-d][1,4]oxazepine-10-carboxamide] | 1 to 10 | < 30 |
| COCCO[C@H]1CC[C@H](NC(=O)c2ccc3[nH]c(=O)c4cncn4c3c2)CC1 [Compound 11A, N-((1r,4r)-4-(2-Methoxyethoxy)cyclohexyl)-4-oxo-4,5-dihydroimidazo[1,5-a]quinoxaline-8-carboxamide] | > 100 | > 1000 |
| O=C(N[C@@H]1CCS(=O)(=O)C1)c1ccc2[nH]c(=O)c3cncn3c2c1 [Compound 12A, (R)—N-(1,1-Dioxidotetrahydrothiophen-3-yl)-4-oxo-4,5-dihydroimidazo[1,5-a]quinoxaline-8-carboxamide] | > 100 | > 1000 |
| O=C(N[C@@H]1CCCOC1)c1ccc2[nH]c(=O)c3cncn3c2c1 [Compound 13A, (R)-4-Oxo-N-(tetrahydro-2H-pyran-3-yl)-4,5-dihydroimidazo[1,5-a]quinoxaline-8-carboxamide] | > 100 | > 1000 |
| O=C(N[C@@H]1CCCOC1)c1ccc2c(c1)-n1ccnc1CCO2 [Compound 14A, (R)—N-(Tetrahydro-2H-pyran-3-yl)-4,5-dihydrobenzo[b]imidazo[1,2-d][1,4]oxazepine-9-carboxamide] | > 100 | > 1000 |
| O=C(N[C@@H]1CCCOC1)c1ccc2c(c1)-n1cncc1CCO2 [Compound 15A, (R)—N-(Tetrahydro-2H-pyran-3-yl)-4,5-dihydrobenzo[b]imidazo[1,5-d][1,4]oxazepine-9-carboxamide] | > 100 | > 1000 |
| Cn1c(=O)c2cncn2c2cc(C(=O)N[C@@H]3CCCOC3)ccc21 [Compound 16A, (R)-5-Methyl-4-oxo-N-(tetrahydro-2H-pyran-3-yl)-4,5-dihydroimidazo[1,5-a]quinoxaline-8-carboxamide] | > 100 | > 1000 |
| O=C(Nc1ccc2c(c1)CCS2(=O)=O)c1ccc2c(c1)-c1cncn1CCO2 [Compound 19A, N-(1,1-Dioxido-2,3-dihydrobenzo[b]thiophen-5-yl)-5,6-dihydrobenzo[f]imidazo[1,5-d][1,4]oxazepine-10-carboxamide] | < 1 | < 30 |
| CS(=O)(=O)c1cc(NC(=O)c2ccc3c(c2)-c2cncn2CCO3)ccc1F [Compound 21A, N-(4-Fluoro-3-(methylsulfonyl)phenyl)-5,6-dihydrobenzo[f]imidazo[1,5-d][1,4]oxazepine-10-carboxamide] | < 1 | < 30 |
| CS(=O)(=O)N1Cc2ccc(NC(=O)c3ccc4c(c3)-c3cncn3CCO4)cc2C1 [Compound 25A, N-(2-(Methylsulfonyl)isoindolin-5-yl)-5,6-dihydrobenzo[f]imidazo[1,5-d][1,4]oxazepine-10-carboxamide] | 1 to 10 | < 30 |
| COCCNc1nc2ccc(C(=O)N[C@@H]3CCCOC3)cc2n2cncc12 [Compound 27A, (R)-4-((2-Methoxyethyl)amino)-N-(tetrahydro-2H-pyran-3-yl)imidazo[1,5-a]quinoxaline-8-carboxamide] | 1 to 10 | 100 to 1000 |
| CNc1nc2ccc(C(=O)N[C@@H]3CCCOC3)cc2n2cncc12 [Compound 28A, (R)-4-(Methylamino)-N-(tetrahydro-2H-pyran-3-yl)imidazo[1,5-a]quinoxaline-8-carboxamide] | 1 to 10 | < 30 |
| O=C(Nc1ccc2c(n1)OCCO2)c1ccc2c(c1)-c1cncn1CCO2 [Compound 30A, N-(2,3-Dihydro-[1,4]dioxino[2,3-b]pyridin-6-yl)-5,6-dihydrobenzo[f]imidazo[1,5-d][1,4]oxazepine-10-carboxamide] | 1 to 10 | < 30 |
